The IC50 is the concentration that inhibits the measured activity by half. Broadly, the efflux ratio is the permeability from basolateral to apical divided by that in the opposite direction, in the common usage. For orientation: Papp A→B means the apparent permeability from the apical to the basolateral side of a cell layer. One may read the Papp B→A as how fast a substance crosses the layer from the basolateral side. By EC50 is commonly meant the concentration that produces a half-maximal response. Read a low EC50 as greater potency. A word on the solubility: it is the dissolved amount per volume that the medium holds. Read a low solubility as little dissolved substance.

Data on one molecule can be found in patent US12612392B2, “Compound, pharmaceutical compositions containing same, synthesis method therefor and use thereof” (SHENZHEN ZHONGGE BIOLOGICAL TECHNOLOGY CO., LTD., priority 2022, dated 2026).

Structures are written as SMILES. A value given as a limit tells only on which side of the number the result lay.

The target of series [1] is T1, CYP3A4 (Homo sapiens, UniProt P08684).
T1 construct: A phosphate buffer solution of liver microsomes was prepared; from tissue; host or cells: human liver microsomes
T1 sequence (P08684 whole entry): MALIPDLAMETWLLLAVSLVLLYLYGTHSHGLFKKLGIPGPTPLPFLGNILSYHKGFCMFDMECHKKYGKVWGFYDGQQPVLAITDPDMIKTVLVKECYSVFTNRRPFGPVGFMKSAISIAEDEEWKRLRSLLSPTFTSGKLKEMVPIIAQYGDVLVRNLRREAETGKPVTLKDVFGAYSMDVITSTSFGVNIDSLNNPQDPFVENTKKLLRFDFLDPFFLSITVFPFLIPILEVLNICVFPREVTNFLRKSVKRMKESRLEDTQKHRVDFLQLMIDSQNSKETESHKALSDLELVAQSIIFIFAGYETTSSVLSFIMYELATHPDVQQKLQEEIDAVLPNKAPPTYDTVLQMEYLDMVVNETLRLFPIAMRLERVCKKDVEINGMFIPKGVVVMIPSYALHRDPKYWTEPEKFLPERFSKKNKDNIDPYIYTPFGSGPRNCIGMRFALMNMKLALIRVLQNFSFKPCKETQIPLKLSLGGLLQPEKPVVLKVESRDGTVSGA
The series can be described thus: P450 enzyme inhibition, CYP3A4. The series is classed as in vitro ADME. As to conditions: human liver microsome, substrate Testosterone. As to the method:
(§1) A phosphate buffer solution of liver microsomes was prepared. 169 μL of the phosphate buffer solution of liver microsomes and 1 μL of working solutions of various concentrations of test compounds or positive control compounds were added to a 96-well plate. The culture plate was placed in a water bath and pre-heated at 37° C. for 15 minutes. After the incubation, 10 μL of substrates were added to the culture plate (1 μL of substrates and 9 μL of the K-Mg buffer solution were added to the plate for CYP3A4-T). The incubation mixture was mixed on a rotating mixer for 10 seconds, and then 20 μL of a 10 mM NADPH solution was added to start the reaction at a final concentration of 1 mM. The experiment was repeated twice. At the predetermined time points listed in Table 4, the reaction was quenched by adding 400 μL of the quenching solution (cold ACN containing 500 nM mephetedrine and 10 nM terfenadine). Centrifugation was performed at 3220 g for 50 minutes at 4° C. 100 μl of the supernatant was transferred to a new plate. The supernatant was diluted with 100 μL of pure water. The mixture was mixed evenly, and the sample was analyzed by UPLC-MS/MS.
Background: Liver microsomes are a subcellular fraction often used to study metabolism.

A short description of series [2]: Cell membrane permeability (A to B / B to A, efflux ratio). In kind it is in vitro ADME. As to the method:
The test compounds were diluted from 10 mM stock solutions to a concentration of 10 μM using the transport buffer (HBSS+BSA) and applied to the apical or basolateral side of the cell monolayer. After the incubation at 37° C., 5% CO2 and 95% relative humidity for 120 minutes, the permeability of the test compounds in the A to B direction or the B to A direction was tested in duplicate. In addition, the efflux ratio of each compound was determined. The test substances and reference substances were quantitatively analyzed by the LC-MS/MS method based on the analyte/IS peak area ratio.

Series [3] addresses T2, CYP2C19 (Homo sapiens, UniProt P33261).
T2 construct: A phosphate buffer solution of liver microsomes was prepared; from tissue; host or cells: human liver microsomes
The series can be described thus: P450 enzyme inhibition, CYP2C19. The series is classed as in vitro ADME. Particulars: human liver microsome, substrate Mephenytoin. As to the method:
as §1

The target in series [4] is T3, CYP2C9 (Homo sapiens, UniProt P11712).
T3 construct: A phosphate buffer solution of liver microsomes was prepared; from tissue; host or cells: human liver microsomes
T3 sequence (P11712 whole entry): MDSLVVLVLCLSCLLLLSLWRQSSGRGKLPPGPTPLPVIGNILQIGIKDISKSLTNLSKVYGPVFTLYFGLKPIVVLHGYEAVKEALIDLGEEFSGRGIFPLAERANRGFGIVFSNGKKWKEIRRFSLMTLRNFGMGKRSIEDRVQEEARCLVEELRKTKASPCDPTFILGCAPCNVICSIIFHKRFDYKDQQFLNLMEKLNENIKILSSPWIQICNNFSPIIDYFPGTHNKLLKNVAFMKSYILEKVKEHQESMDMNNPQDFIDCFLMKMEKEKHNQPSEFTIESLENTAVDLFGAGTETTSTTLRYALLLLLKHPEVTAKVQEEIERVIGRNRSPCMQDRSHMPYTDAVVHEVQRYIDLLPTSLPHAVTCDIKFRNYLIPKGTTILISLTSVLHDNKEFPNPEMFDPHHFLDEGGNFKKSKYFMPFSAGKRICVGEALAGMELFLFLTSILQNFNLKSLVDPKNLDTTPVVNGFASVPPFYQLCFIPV
The series can be described thus: P450 enzyme inhibition, CYP2C9. In kind it is in vitro ADME. Particulars: human liver microsome, substrate Diclofenac sodium. As to the method: as §1

Series [5] concerns the target T4, CYP2D6 (Homo sapiens, UniProt P10635).
T4 construct: A phosphate buffer solution of liver microsomes was prepared; from tissue; host or cells: human liver microsomes
The series can be described thus: P450 enzyme inhibition, CYP2D6. In kind it is in vitro ADME. As to conditions: human liver microsome, substrate Dextromethorphan. As to the method:
as §1

The subject of series [6] is HEK293T/17-ATF4 uORF-Luc-Puro monoclonal cells. As to the kind of experiment: Cell activity test: ATF4 luciferase reporter, thapsigargin-induced stress. Particulars: Homo sapiens, HEK-293T; ATF4 reporter expression, 50 nM thapsigargin, 6 hours. The series is classed as cell-based. The source says:
The ATF4 luciferase reporter plasmid consists of two parts, i.e., the 5′ untranslated region sequence of the ATF4 gene and the luciferase coding sequence. Specifically, the ATF4 5′ untranslated region sequence (NCBI database number BC022088.2) containing two upstream open reading frames (uORFs), and the firefly luciferase encoding gene were cloned into the pLVX-Puro vector (YouBio, VT1465). The lentivirus packaging plasmids were psPAX2 (YouBio, VT1444) and pMD2.G (YouBio, VT1443). HEK293T/17 cells were transfected with the above three plasmids simultaneously using X-tremeGENE 9 DNA transfection reagent, and after 48 hours, a culture medium containing lentivirus was collected. HEK293T/17 cells transduced with the virus were screened with 1 μg/mL puromycin, and then monoclonal cells were obtained by limiting dilution.
By using this cell line and the cold fluorescence readings, the translational regulation of ATF4 can be detected, and the activity of the eIF2B activator can be tested. The specific experimental process is as follows: 6000 HEK293T/17-ATF4 uORF-Luc-Puro monoclonal cells were plated in a 384-well plate and allowed to adhere overnight. The test compounds were dissolved in DMSO and added together with 50 nM thapsigargin to the cell culture medium and incubated for 6 hours, wherein the thapsigargin was used to cause cellular stress and upregulate the protein translation of ATF4. Six hours after the addition, the cells were lysed using the One-Glo Luciferase Assay Kit (Promega #E6120), and then the cold fluorescence values were read using the LUM program of the EnVision 2104 plate reader.
The ATF4 reporter expression % was calculated as follows:
[formula] • ave_vc: average signal value of negative control • ave_pc: average signal value of positive control • ave_sample: average signal value of sample
The dose-response curves were fitted, and the EC50 values were calculated.
The nonlinear regression log (inhibitor) vs. response—variable slope (four parameters) method of GraphPad 9 software was used to fit the corresponding relationship between the ATF4 reporter expression % and the compound concentration.
X-axis: log value of compound concentration; Y-axis: ATF4 reporter expression %; Top: evaluation of upper asymptote of curve; Bottom: evaluation of lower asymptote of curve; Hillslope: slope of the fitted curve.
In general terms: In a reporter assay the amount or activity of a reporter protein is the signal.

The nature of series [7]: Kinetic solubility evaluation. In kind it is physicochemical. Particulars: kinetic from dmso stock, 37° C. As to the method:
The test compounds were dissolved in DMSO to prepare 10 mM stock solutions. 8.71 g of K2HPO4 was added to 500 mL of deionized water to prepare a 100 mM K2HPO4 solution. 2.05 g of potassium dihydrogen phosphate was added to 150 ml of deionized water to prepare a 100 mM potassium dihydrogen phosphate solution. 405 mL of 100 mM K2HPO4 and 95 mL of 100 mM KH2PO4 were mixed, and the mixed solution was adjusted to pH 7.4 by a 100 mM K2HPO4/KH2PO4 solution. 10.41 g of FaSSIF buffer concentrate was added to 240.3 g of deionized water to prepare a buffer solution (fasted-state simulated intestinal fluid, pH=6.5). 4.071 g of FeSSIF buffer concentrate was added to 45.97 g of deionized water to prepare a buffer solution (fed-state simulated intestinal fluid, pH=5.0).
[…] (for PBS) or 37° C. (for others). After the incubation, the solution was transferred to a filter plate. All samples were filtered. 5 μL of the filtrate was added to 5 μL of DMSO, and 490 μl of an aqueous acetonitrile solution containing the internal standard (1:1), and the mixture was mixed evenly. Based on the properties of the compound and its response in mass spectrometry, dilution with an aqueous acetonitrile solution containing the internal standard (1:1) was performed. The dilution factor was varied according to the solubility value and UPLC-MS/MS signal response.

T2 sequence (P33261 whole entry): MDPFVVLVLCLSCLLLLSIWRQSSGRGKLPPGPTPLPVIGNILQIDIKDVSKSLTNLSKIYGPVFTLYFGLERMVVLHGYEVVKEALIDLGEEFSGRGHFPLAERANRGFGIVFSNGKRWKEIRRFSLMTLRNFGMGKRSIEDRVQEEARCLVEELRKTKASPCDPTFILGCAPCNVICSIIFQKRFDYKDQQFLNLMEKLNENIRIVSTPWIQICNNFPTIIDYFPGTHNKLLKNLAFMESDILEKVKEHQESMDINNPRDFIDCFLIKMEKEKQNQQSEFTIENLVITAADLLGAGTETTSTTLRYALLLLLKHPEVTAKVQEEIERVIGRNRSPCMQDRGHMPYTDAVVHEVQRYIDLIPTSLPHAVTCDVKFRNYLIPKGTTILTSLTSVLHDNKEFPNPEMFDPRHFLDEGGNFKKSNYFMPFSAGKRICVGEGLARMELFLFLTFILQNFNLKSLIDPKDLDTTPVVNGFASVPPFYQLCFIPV
T4 sequence (P10635 whole entry): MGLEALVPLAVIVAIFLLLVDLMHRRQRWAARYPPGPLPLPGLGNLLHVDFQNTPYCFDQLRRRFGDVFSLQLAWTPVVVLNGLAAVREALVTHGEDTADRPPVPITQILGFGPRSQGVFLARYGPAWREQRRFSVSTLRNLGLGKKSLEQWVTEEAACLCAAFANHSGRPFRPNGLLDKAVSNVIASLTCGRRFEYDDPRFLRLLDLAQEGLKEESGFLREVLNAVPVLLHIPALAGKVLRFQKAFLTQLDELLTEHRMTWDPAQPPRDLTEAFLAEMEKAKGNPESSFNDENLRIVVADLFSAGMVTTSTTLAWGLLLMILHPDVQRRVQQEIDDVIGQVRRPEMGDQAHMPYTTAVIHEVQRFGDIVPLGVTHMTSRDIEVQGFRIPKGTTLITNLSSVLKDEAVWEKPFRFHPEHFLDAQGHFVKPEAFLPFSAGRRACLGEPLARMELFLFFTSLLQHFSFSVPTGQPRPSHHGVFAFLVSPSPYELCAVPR

In the case of `O=C(COc1ccc(Cl)c(F)c1)N[C@H]1CC[C@H](c2nnc(N3CC(OC(F)(F)F)C3)o2)CC1` [Compound 6], the IC50 was greater than 30 µM in series [1], greater than 10 µM in series [3], greater than 10 µM in series [4] and greater than 30 µM in series [5]. Moreover, in series [2], the efflux ratio at 120 min, 10 µM was 0.71. In addition, in series [2] (37° C.), the Papp A→B at 120 min, 10 µM stood at 25.8 ×10⁻⁶ cm/s. Moreover, the Papp B→A at 120 min, 10 µM in series [2] (37° C.) was 18.4 ×10⁻⁶ cm/s. In addition, the EC50 in series [6] was less than 0.001 µM. The solubility at 1.5 h was greater than 10 µg/mL in series [7] (FaSSIF buffer (fasted-state simulated intestinal fluid), fassif, fasted-state simulated intestinal fluid (pH=6.5)) and greater than 80 µg/mL in series [7] (FeSSIF buffer (fed-state simulated intestinal fluid), fessif, fed-state simulated intestinal fluid (pH=5.0)).
